Results reported in patent US20210386733A1, “LYSINE-SPECIFIC HISTONE DEMETHYLASE INHIBITORS FOR THE TREATMENT OF MYELOPROLIFERATIVE NEOPLASMS” (Imago Biosciences, Inc., priority 2019, published 2021).
Counter-ions that a name gives are not always drawn.

What was measured:
[1] = Non-clinical studies of acute toxicity; format: in vivo; conditions: even at extremely high doses (human equivalent dose (HED) ˜20-40 mg/kg)
[2] = system: patients with myelofibrosis; assay: Phase 2B clinical trial of Compound 1 in myelofibrosis (Example 2); format: in vivo, human
Experimental: A multi-center, open label, dose-range finding study to assess the safety, optimally effective dosing rules, steady-state pharmacokinetics and pharmacodynamics of Compound 1 orally once daily in patients with myelofibrosis was conducted in a Phase 1/2a study. • Primary objectives were to evaluate, in MF patients the effect of Compound 1 on: Safety and tolerability • Pharmacokinetics (Phase 1/2a only) • Reduction in spleen volume
This study initiated as a Phase 1/2a study assessing the safety of the starting dose, an 85 day duration of treatment, and the pharmacokinetic and pharmacodynamic effects of Compound 1, with transition to a Phase 2b study incorporating changes supported by the earlier pharmacokinetic and pharmacodynamic studies and safety assessments. This study consisted of two treatment periods: the Initial Treatment Period (ITP), followed by the Additional Treatment Period (ATP). Patients commenced enrolment in the Phase 2b portion of the study, in which the ITP has been extended such that patients were treated daily for 169 days. The ATP, also extended, offered treatment to qualifying patients for an additional 169 days.
Initial Treatment Period. During the ITP, patients initially returned for study assessments twice weekly for the first week (ITP Days 0, 3 and 7); post-dosing of 3 patients at the new Ds, the DSMC convened to assess the necessity of the Day 3 visit. Patients returned weekly for the next 7 weeks (ITP Days 14, 21, 28, 35, 42, 49 and 56), at least bi-weekly for 8 weeks (ITP Days 70, 84, 98 and 112) and then monthly for 8 weeks (ITP Days 140 and 168). It was anticipated that by Week 8 (Day 56) patients will have achieved a stable dose, with weekly titrations no longer necessary. For the exceptional patient whose dose had not stabilized, weekly visits continued at the PI's discretion (note: bi-weekly visits may also continue post Day 112). On Days 84 and 168, patients underwent abdominal magnetic resonance imaging (MRI), or computerized tomography (CT) if the patient was not a candidate for MRI. On Day 168, bone marrow sampling was also required. Prior to or at the Day 168 visit, but ideally at the Day 140 visit for logistical purposes, a ‘qualification’ assessment was made to determine whether the patient is deriving clinical benefit (defined as not meeting progressive disease criteria and safely tolerating Compound 1; this definition applies throughout document and will not be repeated with each reference to clinical benefit). Such patients qualified for entry into the ATP, a transition which was anticipated to occur without interruption in dosing. Patients not deriving clinical benefit, or who achieve complete response (CR), partial response (PR) or clinical improvement (CI) and subsequently relapse the equivalent of treatment failures, discontinued Compound 1 and undergo End of Treatment (EoT), pre-End of Study (pre-EoS) and End of Study (EoS) visits.
Initial Treatment Period (ITP). Treatment began on Day 0 at the Ds of 0.5 mg/kg QD for all patients entering the Phase 2b portion of the study. Dose-adjustments could be made at each clinic visit (with the exception of Day 3), with dose-titration, either upward or downward, contingent on the comparison of hematology values from the prior visit, as dictated by the rules below. The Dpi was anticipated to be ≤1.2 mg/kg QD; however, this was not the upper limit for titration purposes as the dose needed to achieve a therapeutic effect will vary among patients and may change over time. The platelet titration target expected to be associated with a clinically significant therapeutic effect was a platelet count of ≥50,000 to ≤75,000/μL (50-75×10^9/L). Titration and re-challenge rules based on evaluation of platelet, absolute neutrophil (ANC) and hemoglobin (Hgb) counts are noted below. […]

[3] = Phase 2b patients at Week 12, n=14

CN1CCN(C(=O)[C@H](CCCN[C@@H]2C[C@H]2c2ccc(F)cc2)NC(=O)c2ccc(-n3ccnn3)cc2)CC1 [Compound 1, N-[(2S)-5-{[(1R, 2S)-2-(4-fluorophenyl)cyclopropyl]amino}-1-(4-methylpiperazin-1-yl)-1-oxopentan-2-yl]-4-(1H-1,2,3-triazol-1-yl)benzamide, bis-tosylate salt]
acute toxicity in non-clinical studies [1]: no evidence | patients with a decrease in spleen volume [2, 3]: 86% | patients with a spleen volume reduction of ≥20% [2, 3]: 29% | patients with a spleen volume reduction of ≥35% [2, 3]: 14% | median change in spleen volume to Wk 12 ([2]; Phase 2b patients, n=14): −15% | patients with a decrease in symptom score ([2]; all patients at Week 12, n=32): 78% | patients with a reduction in symptom score of ≥50% ([2]; all patients at Week 12, n=32): 25%
